# Test results as given in patent US11173146B2, “Selective activators of the intermediate conductance CA2+activated K+ channel KCa3.1 and their methods of use” (The Regents of the University of California, priority 2014, dated 2021).
# Entries after “also recorded” stand apart in the source; their conditions may differ. Read-outs that look alike come from different tables or passages of the source.
# Key:
# [1] = Pharmacokinetics in mice (UPLC/MS); type: in vivo, mouse; design: distribution from blood into tissue / oral availability: dose or concentration left out as unconfirmed; conditions: for half-life: iv, 10 mg/kg i.v.
# Excerpt: Pharmacokinetics. Twelve week-old male C57BI/6Jmice were purchased from Charles River Laboratories (Wilmington, Mass.) and housed in microisolator cages with rodent chow and autoclaved water ad libitum. All experiments were in accordance with National Institutes of Health guidelines and approved by the University of California, Davis, Institutional Animal Care and Use Committee. […] At various time points after the injection blood was collected into EDTA blood sample collection tubes either from the saphenous vein or by cardiac puncture under deep isoflurane anesthesia. Following the cardiac puncture mice were sacrificed by cutting the heart and then the brain was removed. Individual mice were typically used for 3 times points (2 blood collections from the saphenous vein plus the terminal blood collection). Plasma was separated by centrifugation and plasma and brain samples were stored at −80 °C pending analysis. Brain samples were homogenized in 1 ml of H2O with a Brinkman Kinematica PT 1600E homogenizer and the protein precipitated with 1 ml of acetonitrile. The samples were then centrifuged at 3000 rpm and supernatants concentrated to 1 ml. Plasma and homogenized brain samples were purified using C18 solid phase extraction cartridges (ThermoFisher Scientific, Waltham, Mass., USA) preconditioned with acetonitrile followed by 1 ml of water. The loaded column was washed with 2 ml of water. […] Eluted fractions were dried under nitrogen and reconstituted in acetonitrile. LC/MS analysis was performed with a Waters Acquity UPLC (Waters, New York, N.Y.) equipped with a Acquity UPLC BEH 1.7 μm RP-18 column (Waters, New York, N.Y.) interfaced to a TSQ Quantum Access Max mass spectrometer (MS) (ThermoFisher Scientific, Waltham, Mass., USA). The isocratic mobile phase consisted of 80% acetonitrile and 20% water, both containing 0.1% formic acid with a flow rate of 0.25 ml/min.
# hKCa1.1 = molecular target: T1, hKCa1.1 (Homo sapiens, UniProt Q12791); assay: KCa1.1 current modulation (QPatch); type: cell-based
# T1 construct: host or cells: HEK-293
# T1 sequence (Q12791 whole entry): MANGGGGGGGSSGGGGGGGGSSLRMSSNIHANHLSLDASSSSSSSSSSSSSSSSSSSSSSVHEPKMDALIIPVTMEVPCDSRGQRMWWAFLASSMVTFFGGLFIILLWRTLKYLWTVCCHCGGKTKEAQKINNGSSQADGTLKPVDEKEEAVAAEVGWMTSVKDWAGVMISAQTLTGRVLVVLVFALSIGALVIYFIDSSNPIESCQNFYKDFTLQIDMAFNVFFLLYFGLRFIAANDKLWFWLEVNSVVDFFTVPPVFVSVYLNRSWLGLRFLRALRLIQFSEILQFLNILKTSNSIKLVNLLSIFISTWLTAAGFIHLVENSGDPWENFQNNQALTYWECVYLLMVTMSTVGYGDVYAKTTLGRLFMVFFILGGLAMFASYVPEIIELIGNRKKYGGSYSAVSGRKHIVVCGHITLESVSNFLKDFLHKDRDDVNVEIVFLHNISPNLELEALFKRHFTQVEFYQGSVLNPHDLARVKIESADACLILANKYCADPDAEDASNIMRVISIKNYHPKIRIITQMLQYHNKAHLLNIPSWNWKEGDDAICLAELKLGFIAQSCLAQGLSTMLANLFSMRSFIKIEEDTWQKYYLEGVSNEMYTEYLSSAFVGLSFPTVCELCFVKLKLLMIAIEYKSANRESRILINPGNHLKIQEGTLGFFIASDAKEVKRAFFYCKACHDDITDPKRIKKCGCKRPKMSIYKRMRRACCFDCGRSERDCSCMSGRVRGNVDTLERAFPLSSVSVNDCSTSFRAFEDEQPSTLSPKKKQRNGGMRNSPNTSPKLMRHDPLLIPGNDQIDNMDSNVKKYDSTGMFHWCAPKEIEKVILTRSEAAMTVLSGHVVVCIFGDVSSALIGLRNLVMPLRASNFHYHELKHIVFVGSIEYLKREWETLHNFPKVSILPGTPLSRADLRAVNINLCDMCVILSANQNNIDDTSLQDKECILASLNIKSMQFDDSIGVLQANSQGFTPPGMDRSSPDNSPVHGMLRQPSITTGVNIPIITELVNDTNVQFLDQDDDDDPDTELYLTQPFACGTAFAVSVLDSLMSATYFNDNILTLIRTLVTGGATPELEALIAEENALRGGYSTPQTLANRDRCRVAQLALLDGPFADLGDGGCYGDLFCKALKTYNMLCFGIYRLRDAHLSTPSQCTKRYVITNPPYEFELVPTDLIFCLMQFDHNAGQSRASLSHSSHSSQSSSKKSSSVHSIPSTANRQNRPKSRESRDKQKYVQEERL
# [2] = test system: L-NAME-treated moderately hypertensive mice; assay: Telemetry in L-NAME-treated hypertensive mice; type: in vivo, mouse
# Experimental: Telemetry. […] Maximal injection volume was ≤600 μl. […] Data were analyzed using the DSI software.
# In contrast, SKA-121 at 100 mg/kg produced a significant drop in MAP by ˜25 mm Hg over 6 h.
# [3] = Plasma protein binding by ultrafiltration; type: in vitro ADME; conditions: rat plasma, 10 μM compound
# Experimental: Rat plasma (500 μl) was spiked with 10 μM of compound in 1% dimethylsulfoxide and the sample loaded onto a Microcon YM-30 Centrifugal Filter (Millipore Corp., Bedford, Mass., USA) and centrifuged at 13,500 g for 30 minutes at room temperature. The retentate was collected by inverting the filter into an Eppendorf tube and spinning at 13,500 g for 15 minutes.
# KV11.1 (hERG) = molecular target: T2, KV11.1 (hERG) (Homo sapiens, UniProt Q12809); assay: KV11.1 (hERG) current inhibition (HEK-293); type: cell-based
# T2 construct: host or cells: HEK-293
# T2 sequence (Q12809 whole entry): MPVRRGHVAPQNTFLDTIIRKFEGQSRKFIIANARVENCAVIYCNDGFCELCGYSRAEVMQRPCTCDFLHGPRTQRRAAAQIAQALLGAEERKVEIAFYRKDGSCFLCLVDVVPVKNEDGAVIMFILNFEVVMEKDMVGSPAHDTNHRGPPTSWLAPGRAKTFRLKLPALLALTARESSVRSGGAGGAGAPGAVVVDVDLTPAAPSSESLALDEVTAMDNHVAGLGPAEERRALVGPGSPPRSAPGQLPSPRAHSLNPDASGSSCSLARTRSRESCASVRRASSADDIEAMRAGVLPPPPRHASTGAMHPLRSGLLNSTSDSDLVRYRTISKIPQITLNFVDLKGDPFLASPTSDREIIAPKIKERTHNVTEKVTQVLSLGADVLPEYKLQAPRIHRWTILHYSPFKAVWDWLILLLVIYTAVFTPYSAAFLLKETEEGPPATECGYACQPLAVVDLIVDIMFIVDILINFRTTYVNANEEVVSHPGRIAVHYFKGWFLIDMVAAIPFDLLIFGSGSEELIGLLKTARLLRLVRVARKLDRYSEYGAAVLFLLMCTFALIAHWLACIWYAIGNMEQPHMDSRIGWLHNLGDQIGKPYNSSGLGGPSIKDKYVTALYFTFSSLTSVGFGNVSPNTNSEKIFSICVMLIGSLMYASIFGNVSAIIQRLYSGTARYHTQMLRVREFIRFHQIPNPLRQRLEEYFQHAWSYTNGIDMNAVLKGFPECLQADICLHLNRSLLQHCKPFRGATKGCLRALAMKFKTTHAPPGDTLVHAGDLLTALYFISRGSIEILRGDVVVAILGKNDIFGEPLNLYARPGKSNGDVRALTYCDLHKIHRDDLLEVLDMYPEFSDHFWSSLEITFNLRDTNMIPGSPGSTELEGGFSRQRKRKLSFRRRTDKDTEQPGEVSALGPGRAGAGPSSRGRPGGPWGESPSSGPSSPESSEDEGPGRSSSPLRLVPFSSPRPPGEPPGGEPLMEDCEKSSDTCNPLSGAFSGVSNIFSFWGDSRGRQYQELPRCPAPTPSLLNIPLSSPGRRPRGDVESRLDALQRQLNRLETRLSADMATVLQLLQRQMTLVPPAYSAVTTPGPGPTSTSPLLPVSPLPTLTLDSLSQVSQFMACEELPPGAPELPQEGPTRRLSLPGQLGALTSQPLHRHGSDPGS
# Excerpt: Cells, Cell lines and Clones. HEK-293 cells stably expressing hKCa2.1, rKCa2.2 and hKCa3.1 were obtained from Khaled Houamed (University of Chicago, Ill.) in 2002 and have been maintained in the Wulff laboratory at the University of California since then. The cloning of hKCa2.3 (19 CAG repeats) and hKCa3.1 has been previously described (Wulff et al., 2000). The hKCa2.3 clone was later stably expressed in COS-7 cells at Aurora Biosciences Corp., San Diego, Calif. […]
# Electrophysiology. […] For manual experiments COS-7, HEK-293 or L929 cells were trypsinized, plated onto poly-L-lysine coated coverslips and typically recorded from between 20 min and 4 h after plating. […] Free Ca^2+ concentrations were calculated with MaxChelator assuming a temperature of 25° C., a pH of 7.2 and an ionic strength of 160 mM. To reduce contaminating currents from native chloride channels in COS-7 cells, KCa2.3 currents were recorded with an internal pipette solution containing (in mM): 145 K^+ aspartate, 2 MgCl2, 10 HEPES, 10 EGTA and 7.4 CaCl2 (500 nM free Ca^2+), pH 7.2, 290-310 mOsm. […] KV2.1, Kv1.3, and KV3.1 currents were recorded in normal Ringer solution with a Ca^2+-free KF-based pipette solution as previously described (Schmitz et al., 2005). HERG (KV11.1) currents were recorded with a 2-step pulse from −80 mV first to 20 mV for 1 sec and then to −50 mV for 1 sec. […]
smiles,measurement,setting,value
"Cc1cc2sc(N)nc2c2ccccc12 [SKA-111, 5-methylnaphtho[1,2-d]thiazol-2-amine]",distribution from blood into tissue,"[1]; […] mg/kg i.v., mice",~2 min
same,total brain concentrations probably achieved,"[1]; i.p. 100 mg/kg, for hours",10 to 30 µM
same,half-life,"[1]; male, C57Bl/6J, mouse, plasma, 10 mg/kg, mice, read-out: elimination half-life (converted)",4.7 ± 0.6 h
same,KCa1.1 % of current,hKCa1.1; at 25 μM,120% of current at 25 μM (3)
same,HR,[2]; 60 mg/kg i.p.,remained virtually stable; also recorded: only a minor drop
same,MAP,[2]; 60 mg/kg i.p.,reduced blood pressure; also recorded: only a minor drop
same,"fraction unbound at 30 min, 10 μM",[3],0.41
same,KV11.1 (hERG) % current inhibition,KV11.1 (hERG); at 25 μM,10.1 ± 7.7%
"Cc1cc2nc(N)oc2c2ccccc12 [SKA-121, 5-Methylnaphtho[2,1-d]oxazol-2-amine]",oral availability,"[1]; […] mg/kg oral vs i.v., mice",roughly 25%
same,concentration at 1 h,"[1]; male, C57Bl/6J, mouse, plasma, 10 mg/kg, […] mg/kg oral, mice, read-out: plasma level at 1 h after oral administration",1100 ± 100 nM
same,concentration at 8 h,"[1]; male, C57Bl/6J, mouse, plasma, 10 mg/kg, […] mg/kg oral, mice, read-out: plasma level at 8 h after oral administration",27 ± 5 nM
same,concentration at 5 min,"[1]; male, C57Bl/6J, mouse, plasma, intravenous, 10 mg/kg, […] mg/kg i.v., mice, read-out: total plasma concentration at 5 min",21300 ± 2400 nM
same,concentration at 1 h,"[1]; male, C57Bl/6J, mouse, plasma, intravenous, 10 mg/kg, […] mg/kg i.v., mice, read-out: total plasma concentration at 1 h",483 ± 231 nM
same,concentration at 4 h,"[1]; male, C57Bl/6J, mouse, plasma, intravenous, 10 mg/kg, […] mg/kg i.v., mice, read-out: total plasma concentration at 4 h",53 ± 44 nM
same,half-life,"[1]; male, C57Bl/6J, mouse, plasma, 10 mg/kg, mice, read-out: half-life",~0.333 h
same,Kp,"[1]; male, C57Bl/6J, mouse, mice, averaged paired brain and plasma samples, read-out: brain/plasma ratio",3.3 ± 2.9
same,KCa1.1 % of current,hKCa1.1; at 50 μM,115% of current at 50 μM (3)
same,HR,[2]; 100 mg/kg i.p.,remained virtually stable; also recorded: minor decrease
same,drop in MAP,[2]; 100 mg/kg i.p.,~25 mm Hg
same,duration of MAP drop,[2]; 100 mg/kg i.p.,6 h
same,blood pressure,"[2]; 100 mg/kg i.p., FIG. 6B",reduced blood pressure
same,"fraction unbound at 30 min, 10 μM",[3],0.19
same,KV11.1 (hERG) % current inhibition,KV11.1 (hERG); at 50 μM,16.7 ± 9.7%
